{"source": "patent US20040096941A1", "about": "“Receptor for plant cell growth factor” (priority 2002, published 2004)", "key": {"[1]": {"molecular_target": "PSK receptor protein (120-kD receptor kinase of carrot) (carrot) (UniProt Q8LPB4)", "assay": "[3H]PSK saturation binding to membrane fractions of control carrot cells (endogenous receptor), Scatchard plot"}, "[2]": {"molecular_target": "PSK receptor protein (120-kD receptor kinase of carrot) (carrot) (UniProt Q8LPB4)", "assay": "[3H]PSK saturation binding to membrane fractions of sense transformants, Scatchard plot"}, "[3]": {"molecular_target": "T1, PSK receptor (120-kD receptor kinase) (Daucus carota, UniProt Q8LPB4)", "T1 construct": "The inserted portion (i.e., full length cDNA) in the positive phage was subcloned to pBS vector; expressed in transfected cells; host or cells: transgenic carrot cells (sense transformant, pBI121, CaMV 35S promoter); membrane fraction", "T1 sequence (Q8LPB4 25-1021)": "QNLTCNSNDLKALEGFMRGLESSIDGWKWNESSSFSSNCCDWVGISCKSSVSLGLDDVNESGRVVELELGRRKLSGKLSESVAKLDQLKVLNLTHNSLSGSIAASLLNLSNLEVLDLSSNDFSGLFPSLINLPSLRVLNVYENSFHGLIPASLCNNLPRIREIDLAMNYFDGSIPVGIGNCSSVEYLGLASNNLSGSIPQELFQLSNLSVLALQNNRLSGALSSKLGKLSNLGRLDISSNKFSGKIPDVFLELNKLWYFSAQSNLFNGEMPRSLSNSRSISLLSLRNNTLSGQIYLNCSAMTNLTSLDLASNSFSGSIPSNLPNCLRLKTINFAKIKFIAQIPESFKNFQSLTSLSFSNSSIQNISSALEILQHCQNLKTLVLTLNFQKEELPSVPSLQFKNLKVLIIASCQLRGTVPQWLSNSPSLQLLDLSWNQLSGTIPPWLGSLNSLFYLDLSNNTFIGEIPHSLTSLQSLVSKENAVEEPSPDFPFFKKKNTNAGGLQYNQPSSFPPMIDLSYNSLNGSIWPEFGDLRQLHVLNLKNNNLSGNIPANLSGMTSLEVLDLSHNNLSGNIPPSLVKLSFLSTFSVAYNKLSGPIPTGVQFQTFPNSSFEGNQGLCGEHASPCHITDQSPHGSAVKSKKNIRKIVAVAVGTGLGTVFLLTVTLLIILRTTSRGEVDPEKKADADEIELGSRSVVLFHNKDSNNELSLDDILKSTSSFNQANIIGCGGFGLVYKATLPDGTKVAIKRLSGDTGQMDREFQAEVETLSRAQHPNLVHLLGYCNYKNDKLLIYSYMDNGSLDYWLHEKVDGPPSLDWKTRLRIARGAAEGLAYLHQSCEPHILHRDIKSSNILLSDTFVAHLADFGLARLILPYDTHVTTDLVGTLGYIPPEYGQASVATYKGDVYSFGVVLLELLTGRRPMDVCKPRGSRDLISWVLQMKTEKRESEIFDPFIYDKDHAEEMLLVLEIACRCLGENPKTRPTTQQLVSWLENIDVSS", "assay": "inhibition of [3H]PSK binding to the membrane fraction of the sense transformant by unlabelled competitors", "set-up": "species or system carrot", "conditions": "6.3 nM [3H]PSK, 3.2 μM unlabelled competitor", "procedure": "The specificity of the PSK binding activity was characterized by comparing the relative binding affinity for several PSK analogs. […] The membrane proteins were incubated in binding buffer containing 6.3 nM [^3H]PSK and 3.2 μM of the competitor ."}, "[4]": {"molecular_target": "T1, PSK receptor (120-kD receptor kinase)", "assay": "specific binding of PSK to membrane fractions, Scatchard plot", "set-up": "species or system carrot"}, "[5]": {"tested_on": "transgenic carrot cells overexpressing the receptor protein (sense transformants)", "assay": "callus growth of transgenic carrot cells in response to PSK", "assay_type": "cell-based", "conditions": "10 nM PSK, 3 weeks on B5 media with NAA 1.0 mg/liter and 6-BA 0.5 mg/liter", "procedure": "The chimeric genes were composed of the receptor kinase ORF, in the sense or antisense orientation, under the control of the constitutive cauliflower mosaic virus 35S promoter incorporated within the binary vector pBI 121. Transformation of carrot hypocotyl segments and plant regeneration were performed following a protocol described elsewhere (M. Hardegger, A. Sturm, Mol. Breed. 4, 119 (1998)). Carrot cells transformed with the binary vector alone were used as controls. Analysis of variance of the growth data was carried out using the Student's t-test procedure of the Prism software (GraphPad Software).\nThe cDNA of the aforementioned protein was overexpressed in transgenic carrot cells, in sense orientation, under the control of the cauliflower mosaic virus 35S promoter. […] These phenotypes are consistent with the hypothesis that overexpression and antisense inhibition of this receptor protein alter the responsive property of carrot cells to PSK. FIGS. 6A to 6C show the callus growth of the sense transformants, the control cells, and antisense transformants exposed to 10 nM PSK, respectively. The transformed carrot cells and the control cells were cultured for 3 weeks on B5 media containing naphthaleneacetic acid (NAA, 1.0 mg/liter), 6-benzylamino purine (6-BA, 0.5 mg/liter), and 10 nM PSK. The scale bar in FIG. 6C represents 1 cm."}, "[6]": {"molecular_target": "T2, PSK receptor protein (120-kD receptor kinase of carrot) (carrot, UniProt Q8LPB4 25-1021, N-linked oligosaccharide chains of approximately 10 kD (cleaved by PNGase F))", "T2 construct": "Assayed in membrane fractions of carrot cells (sense transformants overexpressing the ORF; control cells with the endogenous protein) or solubilized from carrot NC cell microsomal membranes; also called phytosulfokine receptor; 120-kD protein", "T2 sequence": "T1 sequence (Q8LPB4 25-1021)", "assay": "affinity chromatography on [Lys5]PSK-Sepharose, elution with PSK, SDS-PAGE", "procedure": "Carrot microsomal membranes (1,200 mg protein) were solubilized in 320 ml of buffer containing 20 mM HEPES-KOH (pH 7.5), 50 mM KCl, and 1.0% Triton X-100 (buffer A). Solubilized materials were centrifuged at 100,000 g for 30 min at 4° C., and supernatants were applied to the [Lys⁵]PSK-Sepharose column (5.0 ml) at a flow rate of 0.5 ml/min using the AKTA prime chromatography system (Amersham Pharmacia Biotech). After washing with 50 ml of buffer containing 20 mM HEPES-KOH (pH 7.5), 50 mM KCl, and 0.1% Triton X-100 (buffer B), the column was eluted with 15 ml of 1.0 mg/ml PSK in buffer B. The eluates were added to a 1.0-ml column of Macro-Prep Ceramic Hydroxyapatite Type I (Bio-Rad laboratories) at a flow rate of 0.5 ml/min at 4° C. The column was washed with 20 ml of buffer B and eluted with a 18-ml gradient of KH₂PO₄ (0 to 400 mM) in buffer B. Active fractions (12 ml), as determined by [³H]PSK binding assay, were concentrated by ultrafiltration (Ultrafree-15 with Biomax-10 membranes, Millipore) and analyzed by SDS-PAGE using 7.5% gels (Y. Matsubayashi, Y. Sakagami, Eur. J. Biochem. 262, 666 (1999)).\nThe PSK-binding proteins were purified with [Lys⁵] PSK-Sepharose column. The purified proteins were further purified by hydroxyapatite column chromatography, concentrated and subjected to SDS-PAGE and Nile red staining."}, "[7]": {"conditions": "membrane fractions of control cells (binary vector alone)"}, "[8]": {"conditions": "membrane fractions of sense transformant"}}, "note": "Square brackets hold non-standard residues; d marks the D form. Side chains are listed from the residue outwards. Ends that are not written are not given here. Peptide text beside a SMILES is read from it. sY = N[C@@H](Cc1ccc(OS(=O)(=O)O)cc1)C(=O)O; Ahx = NCCCCCC(=O)O", "data": [{"molecule": "phytosulfokine (PSK) (peptide)", "values": [{"measurement": "Bmax (fmol per mg of membrane protein)", "setting": "[1]", "result": 34}, {"measurement": "Bmax (fmol per mg of membrane protein)", "setting": "[2]", "result": 570}]}, {"molecule": "CC[C@H](C)[C@H](NC(=O)[C@@H](N)Cc1ccc(OS(=O)(=O)O)cc1)C(=O)N[C@@H](Cc1ccc(OS(=O)(=O)O)cc1)C(=O)N[C@H](C(=O)N[C@@H](CCC(N)=O)C(=O)O)[C@@H](C)O", "note": "[PSK, phytosulfokine] (H-[sY]I[sY]TQ-OH; N-terminus and C-terminus assumed)", "values": [{"measurement": "inhibition of binding of [3H]PSK to the membrane fraction of the sense transformant", "setting": "[3]", "result": "strongly inhibited"}, {"measurement": "Bmax (maximum number of binding sites)", "setting": "[4]; [7]", "result": "34±2 fmol per mg of membrane protein"}, {"measurement": "Kd", "setting": "[4]; [7]", "result": "4.8 ± 1.1", "unit": "nM"}, {"measurement": "Bmax (maximum number of binding sites)", "setting": "[4]; [8]", "result": "570±18 fmol per mg of membrane protein"}, {"measurement": "Kd", "setting": "[4]; [8]", "result": "4.1 ± 0.5", "unit": "nM"}, {"measurement": "callus growth in response to PSK, compared with control cells", "setting": "[5]", "result": "accelerated growth"}]}, {"molecule": "[1-4]PSK: less active analog of PSK (YIYT)", "values": [{"measurement": "inhibition of binding of [3H]PSK to the membrane fraction of the sense transformant", "setting": "[3]", "result": "less strongly inhibited"}]}, {"molecule": "[sY]I[sY]TK([Ahx-Ahx-Ahx-Sepharose]) (also: Lys5 side chain coupled via Ahx spacer to Sepharose)", "note": "[[Lys5]PSK-Sepharose]", "values": [{"measurement": "binding result", "setting": "[6]", "result": "binds"}]}]}
